Measured values as given in patent publication US8349824B2, “Triazolopyridine compounds” (Hoffmann-La Roche Inc., priority 2010, dated 2013).

Tests used:
human PDE10A full length = biological target: T1, human PDE10A full length (Homo sapiens, UniProt Q9Y233); assay: PDE10A Scintillation Proximity Assay (SPA), human PDE10A full length assay; type: biochemical; conditions: 50 nM cGMP + 50 nM [3H]-cGMP, 20 minutes at room temperature, read-out: PDE10A inhibition IC50
T1 construct: purchased Enzo Life Science, Lausen, Switzerland SE-534
Method in brief: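 IC50 values come from radioactive counts across a range of inhibitor concentrations, using YSi-SPA beads in zinc sulphate as stop reagent. Full-length enzyme hydrolysed 50 nM cGMP with 50 nM [3H]-cGMP for 20 min at room temperature in pH 7.5 HEPES buffer containing 10 mM MgCl2 and 0.05 mg/ml BSA.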

T1 sequence (Q9Y233 1-779 isoform Q9Y233-1): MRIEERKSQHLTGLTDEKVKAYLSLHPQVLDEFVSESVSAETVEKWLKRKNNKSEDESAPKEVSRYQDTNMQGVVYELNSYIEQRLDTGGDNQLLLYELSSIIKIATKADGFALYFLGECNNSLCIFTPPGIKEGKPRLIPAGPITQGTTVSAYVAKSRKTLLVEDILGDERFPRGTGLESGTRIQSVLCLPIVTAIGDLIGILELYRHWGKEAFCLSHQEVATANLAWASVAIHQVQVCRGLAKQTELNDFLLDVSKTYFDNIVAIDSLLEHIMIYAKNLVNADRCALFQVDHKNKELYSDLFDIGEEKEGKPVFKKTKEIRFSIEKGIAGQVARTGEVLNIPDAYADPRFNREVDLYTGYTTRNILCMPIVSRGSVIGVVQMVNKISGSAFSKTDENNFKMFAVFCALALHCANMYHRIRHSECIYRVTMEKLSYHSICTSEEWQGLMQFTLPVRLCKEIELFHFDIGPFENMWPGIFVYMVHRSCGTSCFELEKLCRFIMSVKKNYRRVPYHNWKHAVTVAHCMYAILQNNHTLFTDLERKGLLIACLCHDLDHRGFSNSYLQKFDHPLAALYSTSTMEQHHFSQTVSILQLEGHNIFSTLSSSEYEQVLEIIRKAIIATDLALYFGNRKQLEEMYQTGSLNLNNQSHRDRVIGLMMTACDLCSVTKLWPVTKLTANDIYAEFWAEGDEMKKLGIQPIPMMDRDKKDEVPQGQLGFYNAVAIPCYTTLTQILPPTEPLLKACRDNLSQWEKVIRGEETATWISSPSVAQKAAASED

Structure (SMILES)	IC50 (human PDE10A full length)	melting point
Cc1cc(-c2nc3cc(NC(=O)c4c(C(=O)N5CCC5)cnn4C)ccn3n2)ccn1 [Example 67, 4-(Azetidine-1-carbonyl)-2-methyl-2H-pyrazole-3-carboxylic acid [2-(2-methyl-pyridin-4-yl)-[1,2,4]triazolo[1,5-a]pyridin-7-yl]-amide]	2.06 nM	210 to 211 °C
Cc1cncc(-c2nc3cc(NC(=O)c4c(C(=O)N5CCC5)cnn4C)ccn3n2)c1 [Example 68, 4-(Azetidine-1-carbonyl)-2-methyl-2H-pyrazole-3-carboxylic acid [2-(5-methyl-pyridin-3-yl)-[1,2,4]triazolo[1,5-a]pyridin-7-yl]-amide]	11.2 nM	262 to 264 °C
COc1ccccc1-c1nc2cc(NC(=O)c3c(C(=O)N4CCC4)cnn3C)ccn2n1 [Example 102, 4-(Azetidine-1-carbonyl)-2-methyl-2H-pyrazole-3-carboxylic acid [2-(2-methoxy-phenyl)-[1,2,4]triazolo[1,5-a]pyridin-7-yl]-amide]	0.65 nM	258.1 °C
COc1ccccc1-c1nc2cc(NC(=O)c3c(C(=O)N(C)C4CC4)cnn3C)ccn2n1 [Example 103, 2-Methyl-2H-pyrazole-3,4-dicarboxylic acid 4-(cyclopropyl-methyl-amide)3-{[2-(2-methoxy-phenyl)-[1,2,4]triazolo[1,5-a]pyridin-7-yl]-amide}]	0.31 nM	239.2 °C
Cn1ncc(C(=O)N2CCC2)c1C(=O)Nc1ccn2nc(-c3cccc(F)c3)nc2c1 [Example 105, 4-(Azetidine-1-carbonyl)-2-methyl-2H-pyrazole-3-carboxylic acid [2-(3-fluoro-phenyl)-[1,2,4]triazolo[1,5-a]pyridin-7-yl]-amide]	1.11 nM	232 to 236 °C
Cn1ncc(C(=O)N2CCOCC2)c1C(=O)Nc1ccn2nc(-c3cccc(F)c3)nc2c1 [Example 106, 2-Methyl-4-(morpholine-4-carbonyl)-2H-pyrazole-3-carboxylic acid [2-(3-fluoro-phenyl)-[1,2,4]triazolo[1,5-a]pyridin-7-yl]-amide]	1.54 nM	212 to 214 °C
COC1CN(C(=O)c2cnn(C)c2C(=O)Nc2ccn3nc(-c4cccc(F)c4)nc3c2)C1 [Example 107, 4-(3-Methoxy-azetidine-1-carbonyl)-2-methyl-2H-pyrazole-3-carboxylic acid [2-(3-fluoro-phenyl)-[1,2,4]triazolo[1,5-a]pyridin-7-yl]-amide]	4.7 nM	255 to 257 °C
Cn1ncc(C(=O)N2CCOCC2)c1C(=O)Nc1ccn2nc(-c3cccnc3F)nc2c1 [Example 111, 2-Methyl-4-(morpholine-4-carbonyl)-2H-pyrazole-3-carboxylic acid [2-(2-fluoro-pyridin-3-yl)-[1,2,4]triazolo[1,5-a]pyridin-7-yl]-amide]	6.62 nM	267 to 269 °C
Cn1ncc(C(=O)N2CC3(COC3)C2)c1C(=O)Nc1ccn2nc(N3CCOCC3)nc2c1 [Example 112, 2-Methyl-4-(2-oxa-6-aza-spiro[3.3]heptane-6-carbonyl)-2H-pyrazole-3-carboxylic acid (2-morpholin-4-yl-[1,2,4]triazolo[1,5-a]pyridin-7-yl)-amide]	57.3 nM	> 300 °C
Cn1ncc(C(=O)N2CCOCC2)c1C(=O)Nc1ccn2nc(-c3ccnc(F)c3)nc2c1 [Example 117, N-(2-(2-fluoropyridin-4-yl)-[1,2,4]triazolo[1,5-a]pyridin-7-yl)-1-methyl-4-(morpholine-4-carbonyl)-1H-pyrazole-5-carboxamide]	15 nM	> 280 °C
Cn1ncc(C(=O)N2CCC2)c1C(=O)Nc1ccn2nc(-c3ccnc(F)c3)nc2c1 [Example 118, 4-(Azetidine-1-carbonyl)-2-methyl-2H-pyrazole-3-carboxylic acid [2-(2-fluoro-pyridin-4-yl)-[1,2,4]triazolo[1,5-a]pyridin-7-yl]-amide]	6.78 nM	> 280 °C
Cn1ncc(C(=O)N2CCC2)c1C(=O)Nc1ccn2nc(-c3cccc(F)n3)nc2c1 [Example 119, 4-(Azetidine-1-carbonyl)-2-methyl-2H-pyrazole-3-carboxylic acid [2-(6-fluoro-pyridin-2-yl)-[1,2,4]triazolo[1,5-a]pyridin-7-yl]-amide]	1.2 nM	263.9 °C

The remaining lines, values ahead:

IC50 (human PDE10A full length)	melting point	Structure (SMILES)
5.65 nM	236 to 237 °C	CN(CCF)c1nc2cc(NC(=O)c3c(C(=O)N4CCC4)cnn3C)ccn2n1 [Example 70, 4-(Azetidine-1-carbonyl)-2-methyl-2H-pyrazole-3-carboxylic acid {2-[(2-fluoro-ethyl)-methyl-amino]-[1,2,4]triazolo[1,5-a]pyridin-7-yl}-amide]
6.21 nM	144 to 145 °C	CN(CCF)c1nc2cc(NC(=O)c3c(C(=O)N4CCOCC4)cnn3C)ccn2n1 [Example 71, 2-Methyl-4-(morpholine-4-carbonyl)-2H-pyrazole-3-carboxylic acid {2-[(2-fluoro-ethyl)-methyl-amino]-[1,2,4]triazolo[1,5-a]pyridin-7-yl}-amide]
20.6 nM	203 to 204 °C	CN(C)C(=O)c1cnn(C)c1C(=O)Nc1ccn2nc(N(C)CCF)nc2c1 [Example 72, 2-Methyl-2H-pyrazole-3,4-dicarboxylic acid 4-dimethylamide 3-({2-[(2-fluoro-ethyl)-methyl-amino]-[1,2,4]triazolo[1,5-a]pyridin-7-yl}-amide)]
11.6 nM	145 to 147 °C	CCN(C)C(=O)c1cnn(C)c1C(=O)Nc1ccn2nc(N(C)CCF)nc2c1 [Example 73, 2-Methyl-2H-pyrazole-3,4-dicarboxylic acid 4-(ethyl-methyl-amide) 3-({2-[(2-fluoro-ethyl)-methyl-amino]-[1,2,4]triazolo[1,5-a]pyridin-7-yl}-amide)]
1.86 nM	148 to 151 °C	CN(CCF)c1nc2cc(NC(=O)c3c(C(=O)N(C)C4CC4)cnn3C)ccn2n1 [Example 74, 2-Methyl-2H-pyrazole-3,4-dicarboxylic acid 4-(cyclopropyl-methyl-amide)3-({2-[(2-fluoro-ethyl)-methyl-amino]-[1,2,4]triazolo[1,5-a]pyridin-7-yl}-amide)]
1.43 nM	255 to 260 °C	CN(C)C(=O)c1cnn(C)c1C(=O)Nc1ccn2nc(-c3cccc(F)c3)nc2c1 [Example 104, 2-Methyl-2H-pyrazole-3,4-dicarboxylic acid 4-dimethylamide 3-{[2-(3-fluoro-phenyl)[1,2,4]triazolo[1,5-a]pyridin-7-yl]-amide}]
3.74 nM	249 to 251 °C	CN(C)C(=O)c1cnn(C)c1C(=O)Nc1ccn2nc(-c3cccnc3F)nc2c1 [Example 109, N5-(2-(2-fluoropyridin-3-yl)-[1,2,4]triazolo[1,5-a]pyridin-7-yl)-N4,N4,1-trimethyl-1H-pyrazole-4,5-dicarboxamide]
5.66 nM	233 to 236 °C	CN(CCF)c1nc2cc(NC(=O)c3c(C(=O)N4CC(F)C4)cnn3C)ccn2n1 [Example 114, 4-(3-Fluoro-azetidine-1-carbonyl)-2-methyl-2H-pyrazole-3-carboxylic acid {2-[(2-fluoro-ethyl)-methyl-amino]-[1,2,4]triazolo[1,5-a]pyridin-7-yl}-amide]
1.32 nM	264.4 °C	CN(C)C(=O)c1cnn(C)c1C(=O)Nc1ccn2nc(-c3cccc(F)n3)nc2c1 [Example 120, 2-Methyl-2H-pyrazole-3,4-dicarboxylic acid 4-dimethylamide 3-{[2-(6-fluoro-pyridin-2-yl)-[1,2,4]triazolo[1,5-a]pyridin-7-yl]-amide}]
0.6 nM	274.3 °C	CN(C(=O)c1cnn(C)c1C(=O)Nc1ccn2nc(N3CCCC3)nc2c1)C1CC1 [Example 123, 2-Methyl-2H-pyrazole-3,4-dicarboxylic acid 4-(cyclopropyl-methyl-amide)3-[(2-pyrrolidin-1-yl-[1,2,4]triazolo[1,5-a]pyridin-7-yl)-amide]]
0.86 nM	323.1 °C	CCN(C)C(=O)c1cnn(C)c1C(=O)Nc1ccn2nc(N3CCCC3)nc2c1 [Example 124, 2-Methyl-2H-pyrazole-3,4-dicarboxylic acid 4-(ethyl-methyl-amide)3-[(2-pyrrolidin-1-yl-[1,2,4]triazolo[1,5-a]pyridin-7-yl)-amide]]
